Legend:
Assay type in all cases: binding, mouse (Balb/c)
Conditions in all cases: for Cross-reactivity: (triasulfurone conc. for 50% inhibition/analog conc. for 50% inhibition) × 100
[1] = system: MAb 4149-1-1; experiment: competitive ELISA, triasulfurone and analogs with MAb 4149-1-1 (Table 1)
Excerpt: (§1) As defined within the context of this invention, the percentage of cross-reactivity is represented by the following equation: [triasulfurone concentration for 50% inhibition (I50)/concentration of the triasulfurone analogs for 50% inhibition (I50)]×100.
(§2) The I50 value can be determined, for example, by means of a competitive ELISA assay (see Example 8). In that case the I50 value corresponds, for example, to the antigen concentration that leads to a 50% inhibition of the binding of the antibody to the carrier-bound antigen.
(§3) The detection of triasulfurone is effected by means of a two-step competitive ELISA test.
(§4) BSA-conjugated hapten, prepared in accordance with Example 1.3.1 or 1.3.2, in a 50mM sodium carbonate buffer (pH 9.6) (200 ng of BSA-conjugated hapten/100 μl of sodium carbonate buffer) is first of all adsorbed on microtitre plates (for example Dynatech, type M 129A) and incubated overnight at a temperature of 4° C. The plates are then washed five times with PBS buffer enriched with 0.1% (v/v) polysorbate 20 (Tween 20) (PBS Tween).
(§5) The remaining free binding sites of the solid carder material are then blocked by the addition of PBS-BSA in the form of a 1% (w/v) solution. After incubation for two hours at 22° C. the plates are washed again with PBS Tween (0.1%).
(§6) 50 μl of the supernatant of the previously cloned hybridoma cells (in a dilution of 1:2000 or 1:4000) or 50 μl of the previously purified monoclonal antibodies (40-120 ng/ml) are incubated a) with 950 μl of a standard solution containing an increasing amount of triasulfurone or of triasulfurone analogs, b) with triasulfurone-containing water samples or c) with triasulfurone-containing soil extracts. [All dilutions are carried out in PBS Tween (0.1%)].
(§7) After an incubation period of 1 hour at room temperature (22° C.), 200 μl of the antigen/antibody mixture are added to each well in the microtitre plate and the whole batch is incubated for a further one hour. The wells are then washed five times with PBS Tween (0.1%) and charged with 100 μl/well of goat anti-mouse IgG antibody that is conjugated to alkaline phosphatase (dilution 1:1500), and incubated for a period of 1.5 hours.
(§8) After washing again, 150 μl/well of the substrate p-nitrophenyl phosphate dissolved in 1 mg/ml of diethanolamine buffer ([…], pH 9.8, enriched with 0.5 mM MgCl2 ×6H2 O) are added to the wells.
(§9) The intensity of the colour reaction that has occurred is determined at a wavelength of 405 nm. […] All the samples are determined in triplicate.
(§10) In order to determine the amount of triasulfurone present in a sample, first of all a calibration curve is produced (FIG. 1), B/Bo×100 being plotted against the concentration of inhibitor. (Bo represents the absorption capacity measured without the addition of a triasulfurone inhibitor to the antibody, and B is the absorption capacity when triasulfurone inhibitors at various concentrations are added). The I50 value indicates the concentration of the antigen at which the binding of antibody to the solid phase is inhibited by 50%. The I50 value is determined using an ENZFITTER (Leatherbarrow, Elsevier-Biosoft) curve-calculation program based on a four-parameter logistical curve (Raab GM, 1983) and specially adapted to the prevailing conditions. The quantitative determination of triasulfurone in soil or water samples within the context of ELISA is also carried out using the ENZFITTER program, the adaptation of the curve being based on standards that run on any microtitre plate.

[2] = system: MAb 4134-40-1; experiment: competitive ELISA, triasulfurone and analogs with MAb 4134-40-1 (Table 1)
Excerpt: as §1, §2, §3, §4, §5, §6, §7, §8, §9, §10

[3] = system: MAb 4147-19-4; experiment: competitive ELISA, triasulfurone and analogs with MAb 4147-19-4 (Table 1)
Excerpt: as §1, §2, §3, §4, §5, §6, §7, §8, §9, §10

Compound | I50 (inhibitor concentration that reduces the ELISA signal by 50% in comparison to the control) [1] | Cross-reactivity [1] | I50 (inhibitor concentration that reduces the ELISA signal by 50% in comparison to the control) [2] | Cross-reactivity [2] | I50 (inhibitor concentration that reduces the ELISA signal by 50% in comparison to the control) [3] | Cross-reactivity [3]
CCN(CC)C(=O)NS(=O)(=O)c1ccccc1OCCCl [T] | 0.01 ng/mL | 500.00% | 0.9 ng/mL | 800.0% | 17.6 ng/mL | 0.5%
COc1nc(C)nc(NC(=O)NS(=O)(=O)c2ccccc2OCCCl)n1 [triasulfurone, 3-(6-methoxy-4-methyl-1,3,5-triazin-2-yl)-1-[2-(2-chloroethoxy)-phenylsulfonyl]-urea] | 0.05 ng/mL | 100.0% | 7.2 ng/mL | 100.0% | 0.09 ng/mL | 100.0%

From US5359135A, “Triasulfurone compounds” (priority 1990, dated 1994)
